As a reminder, the IC50 is the concentration that gives 50% inhibition.

Data on eleven compounds can be found in patent US11986471B2, “Compounds and methods of use” (Tango Therapeutics, Inc., priority 2018, dated 2024).

Assay [1] concerns the target T1, PRMT5 (Homo sapiens, UniProt O14744).
T1 construct: purchased Viva (custom protein)
Nature of the assay: PRMT5 IC50 assay in the presence of SAM as cofactor. Format: biochemical. An outline of the steps:
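Results given as IC50 (μM), from which Ki follows by dividing by 1.5 in the SAM condition or by 13.5 in the MTA condition. The ratio of SAM Ki to MTA Ki indicates MTA-cooperative preference.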

Assay [2] concerns the target T1, PRMT5. Description: PRMT5 IC50 assay with no cofactor. Format: biochemical. An outline of the steps:
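Ki conversion: SAM arm, Ki=IC50/1.5; MTA arm, Ki=IC50/13.5. No-cofactor arm reported as IC50 only. Selectivity expressed as Ki(SAM)/Ki(MTA).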

Assay [3] addresses T1, PRMT5. Nature of the assay: PRMT5 IC50 assay in the presence of MTA as cofactor. Format: biochemical. To be noted: for IC50: PRMT5, MTA as cofactor. An outline of the steps: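 Three cofactor conditions are run: SAM-bound, MTA-bound and cofactor-free enzyme. IC50 is read from each; for the SAM and MTA arms it is divided by 1.5 and 13.5 respectively to give Ki.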
Assay [4] relates to HAP1 MTAP-intact. Description: SDMA in-cell western assay, HAP1 MTAP-intact cell line. It is filed as cell-based. To be noted: Homo sapiens. An outline of the steps: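 Using an MTAP-isogenic HAP1 cell pair, inhibition of SDMA formation is read by in-cell western and expressed as IC50. MTAP-selectivity is assigned where the ratio between lines reaches 3 fold or greater.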
Assay [5] relates to HAP1 MTAP-deleted. Nature of the assay: SDMA in-cell western assay, HAP1 MTAP-deleted cell line. It is filed as cell-based. To be noted: for IC50: Homo sapiens, HAP1 MTAP-deleted cell line; for MTAP Intact/Deleted Ratio: IC50 ratio HAP1 MTAP-intact / HAP1 MTAP-deleted. An outline of the steps:
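In-cell western for SDMA marks; MTAP-deleted (null) HAP1 background; values given as IC50.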

Setting [6] is: ratio between Ki in the presence of SAM and Ki in the presence of MTA.
The mark [7] stands for this setting: ratio between the Ki in the presence of SAM and the Ki in the presence of MTA.

Bounds are passed on as bounds.

T1 sequence (O14744 whole entry): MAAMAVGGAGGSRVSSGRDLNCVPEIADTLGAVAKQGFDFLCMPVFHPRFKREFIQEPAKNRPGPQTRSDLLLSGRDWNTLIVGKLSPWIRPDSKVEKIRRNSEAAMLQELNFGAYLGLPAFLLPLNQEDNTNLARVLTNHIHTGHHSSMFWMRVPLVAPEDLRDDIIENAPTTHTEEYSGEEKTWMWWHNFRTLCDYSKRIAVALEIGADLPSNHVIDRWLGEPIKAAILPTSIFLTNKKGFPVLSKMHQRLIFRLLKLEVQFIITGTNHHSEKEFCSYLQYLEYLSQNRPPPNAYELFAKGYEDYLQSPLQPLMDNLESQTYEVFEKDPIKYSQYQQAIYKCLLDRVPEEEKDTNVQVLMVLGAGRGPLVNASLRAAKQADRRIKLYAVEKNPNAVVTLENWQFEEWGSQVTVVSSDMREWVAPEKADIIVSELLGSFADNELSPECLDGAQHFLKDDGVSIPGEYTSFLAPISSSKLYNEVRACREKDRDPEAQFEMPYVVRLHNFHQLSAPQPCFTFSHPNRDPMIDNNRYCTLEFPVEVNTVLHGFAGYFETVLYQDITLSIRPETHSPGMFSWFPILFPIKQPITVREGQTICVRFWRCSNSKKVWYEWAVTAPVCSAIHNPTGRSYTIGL
T1 sequence (Q9BQA1 whole entry partner): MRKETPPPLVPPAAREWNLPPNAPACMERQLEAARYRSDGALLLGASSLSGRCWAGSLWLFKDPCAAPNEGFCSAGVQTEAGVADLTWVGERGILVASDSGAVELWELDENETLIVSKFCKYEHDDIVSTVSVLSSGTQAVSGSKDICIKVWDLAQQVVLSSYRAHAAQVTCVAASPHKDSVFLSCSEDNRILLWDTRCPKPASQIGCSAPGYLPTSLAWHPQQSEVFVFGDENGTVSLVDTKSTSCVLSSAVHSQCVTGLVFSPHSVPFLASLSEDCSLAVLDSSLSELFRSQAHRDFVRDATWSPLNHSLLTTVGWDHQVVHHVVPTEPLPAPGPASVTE

As to `O=C(NC[C@H](O)CN1CCc2c(ccc(OCc3cnco3)c2I)C1)c1ccnc(NC2CCC2)c1` [Compound 258, 2-(cyclobutylamino)-N-[(2S)-2-hydroxy-3-[5-iodo-6-(oxazol-5-ylmethoxy)-3,4-dihydro-1H-isoquinolin-2-yl]propyl]pyridine-4-carboxamide], the IC50 was 500 to 5000 nM in assay [1]; at least 5000 nM in assay [2] (read-out: No Co-factor IC50); 500 to 5000 nM in assay [3]; at least 10000 nM in assay [4]; at least 10000 nM in assay [5]. Moreover, the “SAM/MTA Ratio” value in assay [3] (setting [6]) was “A (a Ki ratio greater than or equal to 10 fold between the Ki in the presence of SAM and the Ki in the presence of MTA)”. For the same compound, in assay [5], the “MTAP Intact/Deleted Ratio” value was “C* (an IC50 ratio of less than 3 fold between the IC50 in the HAP1 MTAP-intact cell line and the HAP1 MTAP-deleted cell line)”.
Consider `O=C(NC[C@H](O)CN1CCc2cc(OCc3c[nH]nn3)ccc2C1)c1ccnc(NC2CCC2)c1` [Compound 207, (S)—N-(3-(6-((1H-1,2,3-triazol-4-yl)methoxy)-3,4-dihydroisoquinolin-2(1H)-yl)-2-hydroxypropyl)-2-(cyclobutylamino)isonicotinamide], for which the concentration for half-maximal inhibition (IC50) was 500 to 5000 nM in assay [1]; at least 5000 nM in assay [2] (read-out: No Co-factor IC50); 500 to 5000 nM in assay [3]; below 1000 nM in assay [4]; below 1000 nM in assay [5]. Besides, the “SAM/MTA Ratio” value in assay [3] (setting [6]) was “A (a Ki ratio greater than or equal to 10 fold between the Ki in the presence of SAM and the Ki in the presence of MTA)”. The “MTAP Intact/Deleted Ratio” value in assay [5] was “C* (an IC50 ratio of less than 3 fold between the IC50 in the HAP1 MTAP-intact cell line and the HAP1 MTAP-deleted cell line)”.
On to `CC(=O)N1CCC(Nc2cc(C(=O)NC[C@H](O)CN3CCc4nc(OCc5cnco5)ccc4C3)ncn2)CC1` [Compound 412, 6-[(1-acetyl-4-piperidyl)amino]-N-[(2S)-2-hydroxy-3-[2-(oxazol-5-ylmethoxy)-7,8-dihydro-5H-1,6-naphthyridin-6-yl]propyl]pyrimidine-4-carboxamide], for which the IC50 was 500 to 5000 nM in assay [1]; at least 5000 nM in assay [2] (read-out: No Co-factor IC50); 50 to 500 nM in assay [3]; at least 10000 nM in assay [4]; at least 10000 nM in assay [5]. For the same compound, the “SAM/MTA Ratio” value in assay [3] (setting [6]) was “A (a Ki ratio greater than or equal to 10 fold between the Ki in the presence of SAM and the Ki in the presence of MTA)”. The “MTAP Intact/Deleted Ratio” value in assay [5] is “C* (an IC50 ratio of less than 3 fold between the IC50 in the HAP1 MTAP-intact cell line and the HAP1 MTAP-deleted cell line)”.
For the compound `CC(C)CC(=O)N1CCC(Nc2cc(C(=O)NC[C@H](O)CN3CCc4c(ccc(OCc5cnco5)c4Cl)C3)ccn2)CC1` [Compound 443, (S)—N-(3-(5-chloro-6-(oxazol-5-ylmethoxy)-3N-dihydroisoquinolin-2(1H)-yl)-2-hydroxypropyl)-2-((1-(3-methylbutanoyl)piperidin-4-yl)amino)isonicotinamide], the IC50 is 50 to 500 nM in assay [1]; 500 to 5000 nM in assay [2]; 50 to 500 nM in assay [3]; at least 10000 nM in assay [4]; below 1000 nM in assay [5]. Further, the “SAM/MTA Ratio” value in assay [3] (setting [7]) was “A (a Ki ratio greater than or equal to 10 fold between the Ki in the presence of SAM and the Ki in the presence of MTA)”. Moreover, the “MTAP Intact/Deleted Ratio” value in assay [5] was “A* (an IC50 ratio greater than or equal to 10 fold between the IC50 in the HAP1 MTAP-intact cell line and the HAP1 MTAP-deleted cell line)”.
With `CC(=O)N1CCC(Nc2cc(C(=O)NC[C@H](O)CN3CCc4c(ccc(OCc5cnn[nH]5)c4Cl)C3)ncn2)CC1` [Compound 343, 6-[(1-acetyl-4-piperidyl)amino]-N-[(2S)-3-[5-chloro-6-(1H-triazol-5-ylmethoxy)-3,4-dihydro-1H-isoquinolin-2-yl]-2-hydroxy-propyl]pyrimidine-4-carboxamide], the IC50 is 500 to 5000 nM in assay [1]; at least 5000 nM in assay [2] (read-out: No Co-factor IC50); 500 to 5000 nM in assay [3]; at least 10000 nM in assay [4]; 1000 to 10000 nM in assay [5]. Besides, the “SAM/MTA Ratio” value in assay [3] (setting [6]) was “A (a Ki ratio greater than or equal to 10 fold between the Ki in the presence of SAM and the Ki in the presence of MTA)”. Also, the “MTAP Intact/Deleted Ratio” value in assay [5] was “C* (an IC50 ratio of less than 3 fold between the IC50 in the HAP1 MTAP-intact cell line and the HAP1 MTAP-deleted cell line)”.
Take `Cc1ncoc1COc1ccc2c(c1)CCN(C[C@@H](O)CNC(=O)c1cc(Nc3cccnc3)nc(N3[C@@H]4CC[C@H]3COC4)c1)C2` [Compound 603, 2-((1R,5S)-3-oxa-8-azabicyclo[3.2.1]octan-8-yl)-N—((S)-2-hydroxy-3-(6-((4-methyloxazol-5-yl)methoxy)-3,4-dihydroisoquinolin-2(1H)-yl)propyl)-6-(pyridin-3-ylamino)isonicotinamide]: the concentration for half-maximal inhibition (IC50) is 50 to 500 nM in assay [1]; 500 to 5000 nM in assay [2]; below 50 nM in assay [3]; 1000 to 10000 nM in assay [4]; below 1000 nM in assay [5]. Besides, the “SAM/MTA Ratio” value in assay [3] (setting [7]) was “A (a Ki ratio greater than or equal to 10 fold between the Ki in the presence of SAM and the Ki in the presence of MTA)”. For the same compound, in assay [5], the “MTAP Intact/Deleted Ratio” value was “B* (an IC50 ratio greater than or equal to 3 fold but lower than 10 fold between the IC50 in the HAP1 MTAP-intact cell line and the HAP1 MTAP-deleted cell line)”.
With `O=C(NC[C@H](O)CN1CCc2cc(OCc3cnco3)ccc2C1)c1cc(NC2COC2)nc(N2CCOCC2)n1` [Compound 304, (S)—N-(2-hydroxy-3-(6-(oxazol-5-ylmethoxy)-3N-dihydroisoquinolin-2(1H)-yl)propyl)-2-morpholino-6-(oxetan-3-ylamino)pyrimidine-4-carboxamide], the IC50 was in the range of 50 to 500 nM in assay [1]; 500 to 5000 nM in assay [2] (read-out: No Co-factor IC50); 50 to 500 nM in assay [3]; 1000 to 10000 nM in assay [4]; 1000 to 10000 nM in assay [5]. In addition, the “MTAP Intact/Deleted Ratio” value in assay [5] is “C* (an IC50 ratio of less than 3 fold between the IC50 in the HAP1 MTAP-intact cell line and the HAP1 MTAP-deleted cell line)”.
With `Cc1c(OCc2cnco2)ccc2c1CCN(C[C@@H](O)CNC(=O)c1ccnc(NC3CC4(CCC4)C3)c1)C2` [Compound 473, (S)—N-(2-hydroxy-3-(5-methyl-6-(oxazol-5-ylmethoxy)-3,4-dihydroisoquinolin-2(1H)-yl)propyl)-2-(spiro[3.3]heptan-2-ylamino)isonicotinamide], the IC50 was 50 to 500 nM in assay [1]; 500 to 5000 nM in assay [2]; 50 to 500 nM in assay [3]; at least 10000 nM in assay [4]; 1000 to 10000 nM in assay [5]. Besides, in assay [3] (setting [7]), the “SAM/MTA Ratio” value is “A (a Ki ratio greater than or equal to 10 fold between the Ki in the presence of SAM and the Ki in the presence of MTA)”. The “MTAP Intact/Deleted Ratio” value in assay [5] is “C* (an IC50 ratio of less than 3 fold between the IC50 in the HAP1 MTAP-intact cell line and the HAP1 MTAP-deleted cell line)”.
Regarding `COc1ccc(C(=O)N2CCc3cc(C(=O)NC[C@H](O)CN4CCc5cc(OCc6cnco6)ccc5C4)ccc3C2)cc1` [Compound 547, (S)—N-(2-hydroxy-3-(6-(oxazol-5-ylmethoxy)-3,4-dihydroisoquinolin-2(1H)-yl)propyl)-2-(4-methoxybenzoyl)-1,2,3,4-tetrahydroisoquinoline-6-carboxamide], the IC50 in assay [1] is 50 to 500 nM; in assay [2], 500 to 5000 nM; in assay [3] it was 50 to 500 nM; in assay [4], 1000 to 10000 nM; in assay [5], 1000 to 10000 nM. Moreover, the “SAM/MTA Ratio” value in assay [3] (setting [7]) is “A (a Ki ratio greater than or equal to 10 fold between the Ki in the presence of SAM and the Ki in the presence of MTA)”. In addition, the “MTAP Intact/Deleted Ratio” value in assay [5] is “C* (an IC50 ratio of less than 3 fold between the IC50 in the HAP1 MTAP-intact cell line and the HAP1 MTAP-deleted cell line)”.
Take `COCCN(C)c1nc(NC2COC2)cc(C(=O)NC[C@H](O)CN2CCc3cc(OCc4ocnc4C)ccc3C2)n1` [Compound 408, N-[(2S)-2-hydroxy-3-{6-[(4-methyl-1,3-oxazol-5-yl)methoxy]-1,2,3,4-tetrahydroisoquinolin-2-yl}propyl]-2-[(2-methoxyethyl)(methyl)amino]-6-[(oxetan-3-yl)amino]pyrimidine-4-carboxamide]: the IC50 in assay [1] was 50 to 500 nM; in assay [2] (read-out: No Co-factor IC50), 500 to 5000 nM; in assay [3] it was 50 to 500 nM; in assay [4], below 1000 nM; in assay [5], below 1000 nM. Moreover, the “SAM/MTA Ratio” value in assay [3] (setting [6]) is “A (a Ki ratio greater than or equal to 10 fold between the Ki in the presence of SAM and the Ki in the presence of MTA)”. Further, in assay [5], the “MTAP Intact/Deleted Ratio” value was “C* (an IC50 ratio of less than 3 fold between the IC50 in the HAP1 MTAP-intact cell line and the HAP1 MTAP-deleted cell line)”.
With `Cc1ncoc1COc1ccc2c(c1)CCN(C[C@@H](O)CNC(=O)c1ccc(OC3CCOCC3)cc1)C2` [Compound 475, N-[(2S)-2-hydroxy-3-{6-[(4-methyl-1,3-oxazol-5-yl)methoxy]-1,2,3,4-tetrahydroisoquinolin-2-yl}propyl]-4-(oxan-4-yloxy)benzamide], the IC50 in assay [1] was 500 to 5000 nM; in assay [2], at least 5000 nM; in assay [3], 50 to 500 nM; in assay [4] it was 1000 to 10000 nM; in assay [5] it was 1000 to 10000 nM. For the same compound, the “SAM/MTA Ratio” value in assay [3] (setting [7]) is “A (a Ki ratio greater than or equal to 10 fold between the Ki in the presence of SAM and the Ki in the presence of MTA)”. Further, in assay [5], the “MTAP Intact/Deleted Ratio” value was “C* (an IC50 ratio of less than 3 fold between the IC50 in the HAP1 MTAP-intact cell line and the HAP1 MTAP-deleted cell line)”.
